Patent US4312874A, “Antibacterial compounds, processes for their preparation and compositions containing them” (Beecham Group Limited, priority 1979, dated 1982)
Values after ≈ are worked out from the molar mass of the structure shown. Like-named read-outs stand apart in the source and are kept apart here.

Columns and labels:
[1] = tested on: E. coli ESS; experiment: MIC by serial dilution in nutrient agar with 5% chocolated horse blood; assay type: cell-based; settings: Escherichia coli; Table 1
[2] = tested on: M. suipneumoniae ATCC 25095; experiment: in vitro MIC by serial dilution in Friis modified agarose medium; assay type: cell-based; settings: Mesomycoplasma hyopneumoniae, ATCC25095; Table 3
[3] = tested on: Corynebacterium pyogenes CY1; experiment: MIC by agar dilution, veterinary bacteria; settings: CY1, 24 h
[4] = tested on: Bord. bronchiseptica B09; experiment: MIC by agar dilution, veterinary bacteria; settings: Bordetella bronchiseptica, B09, 24 h
[5] = tested on: M. siupneumoniae HK(2); experiment: in vitro MIC by serial dilution in Friis modified agarose medium; assay type: cell-based; settings: Table 3
[6] = Mouse blood levels of Example 1 following oral and subcutaneous administration; assay type: in vivo, albino male mice; settings: read-out: blood conc.; for concentration at 0.5 h: 30 min; for concentration at 1 h: 60 min; for concentration at 2 h: 120 min; for concentration at 4 h: 240 min
Experimental: Mouse blood levels of Example 1 following its oral and subcutaneous administration
Blood levels were assessed in albino male mice (18-22 g CSI). The dose was 50 mg/kg administered in a 10% DMF solution orally and subcutaneously. The mice were killed at intervals up to 4 hours and the blood assayed microbiologically using B. subtilis.

[7] = tested on: M. suipneumoniae TAM 6N; experiment: in vitro MIC by serial dilution in Friis modified agarose medium; assay type: cell-based; settings: Mesomycoplasma hyopneumoniae, TAM6N; Table 3
[8] = tested on: S. typhimurium S18; experiment: MIC by agar dilution, veterinary bacteria; settings: Salmonella enterica, 24 h
[9] = tested on: Strep. agalactiae SPA1; experiment: MIC by agar dilution, veterinary bacteria; settings: Streptococcus agalactiae, SPA1, 24 h
[10] = tested on: Strep. pyogenes A 64/848; experiment: MIC by serial dilution in nutrient agar with 5% chocolated horse blood; assay type: cell-based; settings: Streptococcus pyogenes, A64/848; Table 1
[11] = tested on: M. dispar NCTC 10125; experiment: in vitro MIC by serial dilution in Friis modified agarose medium; assay type: cell-based
[12] = tested on: M. hyorhinis ATCC 23234; experiment: as above; assay type: cell-based; settings: Mesomycoplasma hyorhinis, ATCC23234; Table 3
[13] = tested on: Past. multocida PA2; experiment: MIC by agar dilution, veterinary bacteria; settings: Pasteurella multocida, PA2, 24 h
[14] = tested on: Strep. uberis SPU1; experiment: MIC by agar dilution, veterinary bacteria; settings: Streptococcus uberis, SPU1, 24 h
[15] = tested on: Strep. pyogenes C 2761; experiment: MIC by serial dilution in nutrient agar with 5% chocolated horse blood; assay type: cell-based; settings: Streptococcus pyogenes, C2761; Table 1
[16] = tested on: Neisseria catarrhalis 1502; experiment: as above; assay type: cell-based
[17] = tested on: E. coli NCTC 10418; experiment: as above; assay type: cell-based; settings: Escherichia coli, NCTC10418
[18] = tested on: Staph. aureus Oxford; experiment: MIC by agar dilution, veterinary bacteria; settings: Staphylococcus aureus, 24 h
[19] = Mouse blood levels of Example 3 following oral and subcutaneous administration; assay type: in vivo, albino male mice (strain OLAC: MF-1); settings: read-out: blood conc.; for concentration at 0.5 h: 30 min; for concentration at 0.75 h: 45 min; for concentration at 1 h: 60 min; for concentration at 1.5 h: 90 min
Experimental: Mouse blood levels of Example 3 following its oral and subcutaneous administration
Blood levels were assessed in albino male mice (strain OLAC: MF-1, 18-22 g). The dose was 50 mg/kg administered in a 10% ethanol solution orally and subcutaneously. The mice were killed at intervals up to 90 min and the blood assayed microbiologically using B. subtilis ATCC 6633 in TSA at pH 8.0.

[20] = Mean serum concentrations in neonatal piglets after intramuscular or oral administration; assay type: in vivo; settings: pig; for concentration at 1 h: 60'
Experimental: Mean serum concentrations in neonatal piglets of Example 3 after intramuscular or oral administration at 50 mg/kg
Blood levels were assessed in neonatal piglets (mean bodyweight ca. 3 kg). The dose was 50 mg/kg administered as a 25 mg/ml of 25% aqueous ethanol solution. Doses were given by intramuscular injection and orally by stomach tube. Piglets were bled at intervals up to 24 hr and the serum assayed microbiologically using B. subtilis ATCC 6633.

[21] = Mean serum concentrations in milk weaned piglets after oral administration; assay type: in vivo; settings: pig, p.o. 50 mg/kg
Experimental: Mean serum concentrations in milk weaned piglets of Example 3 after oral administration at 50 mg/kg
Blood levels were assessed in milk weaned piglets (mean bodyweight 4.1 kg). The dose was 50 mg/kg administered orally (intubation) as a 25 mg/ml of 25% aqueous ethanol solution. Piglets were bled at intervals up to […] and the serum assayed microbiologically using B. subtilis ATCC 6633.

In the case of `CC(=O)C=C(C)CC1OCC(CC2OC2C(C)C(C)O)C(O)C1O` [Example 1, 1-[3R,4R-Dihydroxy-5S-(2S,3S-epoxy-5S-hydroxy-4S-methylhexyl)-2,3,5,6-tetrahydropyran-2-S-yl]-2-methylpent-2E-en-4-one], the MIC [1] is reported as 10 µg/mL (≈ 29.2 µM), the MIC [2] is reported as 10 µg/mL (≈ 29.2 µM) and the MIC [3] is reported as > 80 µg/mL. For the same compound, the MIC [4] was 20 µg/mL (≈ 58.4 µM), the MIC [5] was > 10 µg/mL and the concentration at 5 min ([6]; oral 50 mg/kg) was 5900 ng/mL. The concentration at 10 min ([6]; oral 50 mg/kg) was 7700 ng/mL, the concentration at 20 min ([6]; oral 50 mg/kg) was 4800 ng/mL and the concentration at 0.5 h ([6]; oral 50 mg/kg) was < 3000 ng/mL. The concentration at 1 h ([6]; oral 50 mg/kg) was < 3000 ng/mL, the concentration at 2 h ([6]; oral 50 mg/kg) was < 3000 ng/mL and the concentration at 4 h ([6]; oral 50 mg/kg) was < 3000 ng/mL. The concentration at 5 min ([6]; sc, subcutaneous 50 mg/kg) was 16400 ng/mL, the concentration at 10 min ([6]; sc, subcutaneous 50 mg/kg) was 15300 ng/mL and the concentration at 20 min ([6]; sc, subcutaneous 50 mg/kg) was 9800 ng/mL. For the same compound, the concentration at 0.5 h ([6]; sc, subcutaneous 50 mg/kg) was 5000 ng/mL, the concentration at 1 h ([6]; sc, subcutaneous 50 mg/kg) was < 3000 ng/mL and the concentration at 2 h ([6]; sc, subcutaneous 50 mg/kg) was < 3000 ng/mL. The concentration at 4 h ([6]; sc, subcutaneous 50 mg/kg) was < 3000 ng/mL, the MIC [7] was > 10 µg/mL and the MIC [8] was > 80 µg/mL. For the same compound, the MIC [9] was > 80 µg/mL, the MIC [10] was 50 µg/mL (≈ 146 µM) and the MIC ([11]; Table 3, read-out: MIC) was 2.5 µg/mL (≈ 7.3 µM). It also gave an MIC [12] of 10 µg/mL (≈ 29.2 µM), an MIC [13] of 5 µg/mL (≈ 14.6 µM) and an MIC [14] of 20 µg/mL (≈ 58.4 µM). The MIC [15] was 100 µg/mL (≈ 292 µM), the MIC ([16]; Table 1, read-out: MIC) was 0.2 µg/mL (≈ 0.584 µM) and the MIC ([17]; Table 1, read-out: MIC) was > 100 µg/mL.

For `CCC(=O)C=C(C)CC1OCC(CC2OC2C(C)C(C)O)C(O)C1O` [Example 2, 1-[3R,4R-Dihydroxy-5S-(2S,3S-epoxy-5-S-hydroxy-4S-methylhexyl)tetrahydropyran-2S-yl]-2-methylhex-2E-en-4-one], the MIC [18] was 0.312 µg/mL (≈ 0.875 µM), the MIC [2] was 2.5 µg/mL (≈ 7.01 µM) and the MIC [3] was > 40 µg/mL. It also gave an MIC [4] of 40 µg/mL (≈ 112 µM), an MIC [5] of 2.5 µg/mL (≈ 7.01 µM) and an MIC [7] of 2.5 µg/mL (≈ 7.01 µM). For the same compound, the MIC [8] was > 40 µg/mL, the MIC [9] was 20 µg/mL (≈ 56.1 µM) and the MIC [10] was 12.5 µg/mL (≈ 35.1 µM). It also gave an MIC [11] of 0.5 µg/mL (≈ 1.4 µM), an MIC [12] of 2.5 µg/mL (≈ 7.01 µM) and an MIC [13] of 0.312 µg/mL (≈ 0.875 µM). It also gave an MIC [14] of 5 µg/mL (≈ 14 µM), an MIC [15] of 25 µg/mL (≈ 70.1 µM) and an MIC [16] of 0.5 µg/mL (≈ 1.4 µM). The MIC [17] was > 50 µg/mL.

Work on `CCCCC(=O)C=C(C)CC1OCC(CC2OC2C(C)C(C)O)C(O)C1O` [Example 3, 1-[3R,4R-Dihydroxy-5S-(2S,3S-epoxy-5S-hydroxy-4S-methylhexyl)tetrahydropyran-2S-yl]-2-methyloct-2E-en-4-one] yielded an MIC [1] of 1 µg/mL (≈ 2.6 µM), an MIC [18] of 2.5 µg/mL (≈ 6.5 µM) and an MIC [2] of 1 µg/mL (≈ 2.6 µM). For the same compound, the MIC [3] was > 80 µg/mL, the MIC [4] was 40 µg/mL (≈ 104 µM) and the MIC [5] was 1 µg/mL (≈ 2.6 µM). The MIC [7] was 1 µg/mL (≈ 2.6 µM), the MIC [8] was > 80 µg/mL and the MIC [9] was 10 µg/mL (≈ 26 µM). It also gave an MIC ([11]; Table 3, read-out: MIC) of 0.25 µg/mL (≈ 0.65 µM), an MIC [12] of 0.5 µg/mL (≈ 1.3 µM) and a concentration at 5 min ([19]; oral 50 mg/kg) of 9400 ng/mL. The concentration at 10 min ([19]; oral 50 mg/kg) was 5100 ng/mL, the concentration at 20 min ([19]; oral 50 mg/kg) was < 1500 ng/mL and the concentration at 0.5 h ([19]; oral 50 mg/kg) was < 1500 ng/mL. For the same compound, the concentration at 0.75 h ([19]; oral 50 mg/kg) was < 1500 ng/mL, the concentration at 1 h ([19]; oral 50 mg/kg) was < 1500 ng/mL and the concentration at 1.5 h ([19]; oral 50 mg/kg) was < 1500 ng/mL. For the same compound, the concentration at 5 min ([19]; sc, subcutaneous 50 mg/kg) was 19800 ng/mL, the concentration at 10 min ([19]; sc, subcutaneous 50 mg/kg) was 15500 ng/mL and the concentration at 20 min ([19]; sc, subcutaneous 50 mg/kg) was 7300 ng/mL. For the same compound, the concentration at 0.5 h ([19]; sc, subcutaneous 50 mg/kg) was 2200 ng/mL, the concentration at 0.75 h ([19]; sc, subcutaneous 50 mg/kg) was < 1500 ng/mL and the concentration at 1 h ([19]; sc, subcutaneous 50 mg/kg) was < 1500 ng/mL. The concentration at 1.5 h ([19]; sc, subcutaneous 50 mg/kg) was < 1500 ng/mL, the concentration at 10 min ([20]; im, i.m. 50 mg/kg) was 8500 ng/mL and the concentration at 20 min ([20]; im, i.m. 50 mg/kg) was 7900 ng/mL. It also gave a concentration at 40 min ([20]; im, i.m. 50 mg/kg) of 5100 ng/mL, a concentration at 1 h ([20]; im, i.m. 50 mg/kg) of 4300 ng/mL and a concentration at 2 h ([20]; im, i.m. 50 mg/kg) of 1300 ng/mL. For the same compound, the concentration at 3 h ([20]; im, i.m. 50 mg/kg) was 1200 ng/mL, the concentration at 4 h ([20]; im, i.m. 50 mg/kg) was < 70 ng/mL and the concentration at 10 min ([20]; po, p.o. 50 mg/kg) was 3100 ng/mL. For the same compound, the concentration at 20 min ([20]; po, p.o. 50 mg/kg) was 2000 ng/mL, the concentration at 40 min ([20]; po, p.o. 50 mg/kg) was 1400 ng/mL and the concentration at 1 h ([20]; po, p.o. 50 mg/kg) was 830 ng/mL. For the same compound, the concentration at 2 h ([20]; po, p.o. 50 mg/kg) was 700 ng/mL, the concentration at 3 h ([20]; po, p.o. 50 mg/kg) was 600 ng/mL and the concentration at 4 h ([20]; po, p.o. 50 mg/kg) was < 70 ng/mL. For the same compound, the MIC [13] was 1.25 µg/mL (≈ 3.25 µM), the MIC [14] was 2.5 µg/mL (≈ 6.5 µM) and the MIC [15] was 2.5 µg/mL (≈ 6.5 µM). It also gave an MIC ([16]; Table 1, read-out: MIC) of 0.5 µg/mL (≈ 1.3 µM), a concentration at 10 min ([21]; 10') of 2100 ng/mL and a concentration at 20 min ([21]; 20') of 1900 ng/mL. For the same compound, the concentration at 40 min ([21]; 40') was 720 ng/mL, the concentration at 1 h ([21]; 60') was 1100 ng/mL and the concentration at 2 h ([21]; 2 hr) was 480 ng/mL. It also gave a concentration at 3 h ([21]; 3 hr) of 370 ng/mL, a concentration at 4 h ([21]; 4 hr) of 200 ng/mL and a concentration at 6 h ([21]; 6 hr) of 110 ng/mL. For the same compound, the concentration at 8 h ([21]; 8 hr) was < 60 ng/mL and the MIC ([17]; Table 1, read-out: MIC) was > 100 µg/mL.
